Data as given in patent US20250147039A1, “Compounds for complexation of rare earth elements and/or s-, p-, d- block metals, their coordination compounds, peptide conjugates, method of their preparation and use thereof” (USTAV ORGANICKE CHEMIE A BIOCHEMIE AV CR V.V.I., priority 2021, published 2025).

Columns and labels:
[1] = Formation of 1,5-cz-[Ln(Lig)] from Lig and Ln^III ions (metal dependent click-zip), MOPS/NaOH buffer pH 7.0, analytical HPLC (Charts 1, 2); conditions: MOPS/NaOH buffer pH 7.0
[2] = Formation of 1,5-cz-[M(Lig)] from Lig and M^III ions (metal dependent click-zip) (Charts 4, 5); format: physicochemical; conditions: MOPS/NaOH buffer pH 7.0; for conversion to 1,5-cz-[M(Lig)], Sc^III / conversion to 1,5-cz-[M(Lig)], Y^III: TD728, TD827 in 50% i-PrOH; for conversion to 1,5-cz-[M(Lig)], Y^III: TD714 sum of two diastereoisomers

Row | Compound | conversion to 1,5-cz-[Ln(Lig)], Ce^III ([1]; after 1 week at 80° C.) [%] | conversion to 1,5-cz-[Ln(Lig)], Ce^III ([1]; after 1 hour at 80° C.) [%] | conversion to 1,5-cz-[Ln(Lig)], Dy^III ([1]; after 1 week at 80° C.) [%] | conversion to 1,5-cz-[Ln(Lig)], Dy^III ([1]; after 1 hour at 80° C.) [%] | conversion to 1,5-cz-[Ln(Lig)], Er^III ([1]; after 1 week at 80° C.) [%] | conversion to 1,5-cz-[Ln(Lig)], Er^III ([1]; after 1 hour at 80° C.) [%] | conversion to 1,5-cz-[Ln(Lig)], Eu^III ([1]; after 1 week at 80° C.) [%] | conversion to 1,5-cz-[Ln(Lig)], Eu^III ([1]; after 1 hour at 80° C.) [%] | conversion to 1,5-cz-[Ln(Lig)], Gd^III ([1]; after 1 week at 80° C.) [%] | conversion to 1,5-cz-[Ln(Lig)], Gd^III ([1]; after 1 hour at 80° C.) [%] | conversion to 1,5-cz-[Ln(Lig)], Ho^III ([1]; after 1 week at 80° C.) [%] | conversion to 1,5-cz-[Ln(Lig)], Ho^III ([1]; after 1 hour at 80° C.) [%] | conversion to 1,5-cz-[Ln(Lig)], Lu^III ([1]; after 1 week at 80° C.) [%] | conversion to 1,5-cz-[Ln(Lig)], Lu^III ([1]; after 1 hour at 80° C.) [%] | conversion to 1,5-cz-[Ln(Lig)], Sm^III ([1]; after 1 week at 80° C.) [%] | conversion to 1,5-cz-[Ln(Lig)], Sm^III ([1]; after 1 hour at 80° C.) [%] | conversion to 1,5-cz-[Ln(Lig)], Tb^III ([1]; after 1 week at 80° C.) [%] | conversion to 1,5-cz-[Ln(Lig)], Tb^III ([1]; after 1 hour at 80° C.) [%] | conversion to 1,5-cz-[M(Lig)], Y^III ([2]; 1 week at 80° C.) [%] | conversion to 1,5-cz-[M(Lig)], Y^III ([2]; 1 hour at 80° C.) [%] | also measured
1 | [N-]=[N+]=NCc1cccc(CN2CCN(CC(=O)O)CCN(Cc3cccc(C#CC45CC6CC(CC(C6)C4)C5)n3)CCN(CC(=O)O)CC2)n1 [TD992] | 20 | 0 | 81 | 1 | 95 | 2 | 59 | 1 | 61 | 1 | 89 | 2 | 99 | 6 | 55 | 1 | 73 | 1 | 87 | 2 | conversion to 1,5-cz-[Ln(Lig)], La^III ([1]; after 1 week at 80° C.): 22%; conversion to 1,5-cz-[Ln(Lig)], La^III ([1]; after 1 hour at 80° C.): 0%; conversion to 1,5-cz-[Ln(Lig)], Nd^III ([1]; after 1 week at 80° C.): 40%; conversion to 1,5-cz-[Ln(Lig)], Nd^III ([1]; after 1 hour at 80° C.): 0%; conversion to 1,5-cz-[Ln(Lig)], Pr^III ([1]; after 1 week at 80° C.): 33%; conversion to 1,5-cz-[Ln(Lig)], Pr^III ([1]; after 1 hour at 80° C.): 0%; conversion to 1,5-cz-[Ln(Lig)], Tm^III ([1]; after 1 week at 80° C.): 98%; conversion to 1,5-cz-[Ln(Lig)], Tm^III ([1]; after 1 hour at 80° C.): 4%; conversion to 1,5-cz-[Ln(Lig)], Yb^III ([1]; after 1 week at 80° C.): 99%; conversion to 1,5-cz-[Ln(Lig)], Yb^III ([1]; after 1 hour at 80° C.): 5%; conversion to 1,5-cz-[M(Lig)], Sc^III ([2]; 1 week at 80° C.): 2%; conversion to 1,5-cz-[M(Lig)], Sc^III ([2]; 1 hour at 80° C.): 0%
2 | [N-]=[N+]=NCc1cccc(CN2CCN(CC(=O)O)CCN(Cc3cccc(C#Cc4ccccc4)n3)CCN(CC(=O)O)CC2)n1 [TD944] | 3 | 0 | 51 | 0 | 84 | 1 | 19 | 0 | 23 | 0 | 68 | 1 | 94 | 2 | 16 | 0 | 37 | 0 | 63 | 1 | conversion to 1,5-cz-[Ln(Lig)], La^III ([1]; after 1 week at 80° C.): 4%; conversion to 1,5-cz-[Ln(Lig)], La^III ([1]; after 1 hour at 80° C.): 0%; conversion to 1,5-cz-[Ln(Lig)], Nd^III ([1]; after 1 week at 80° C.): 8%; conversion to 1,5-cz-[Ln(Lig)], Nd^III ([1]; after 1 hour at 80° C.): 0%; conversion to 1,5-cz-[Ln(Lig)], Pr^III ([1]; after 1 week at 80° C.): 6%; conversion to 1,5-cz-[Ln(Lig)], Pr^III ([1]; after 1 hour at 80° C.): 0%; conversion to 1,5-cz-[Ln(Lig)], Tm^III ([1]; after 1 week at 80° C.): 93%; conversion to 1,5-cz-[Ln(Lig)], Tm^III ([1]; after 1 hour at 80° C.): 1%; conversion to 1,5-cz-[Ln(Lig)], Yb^III ([1]; after 1 week at 80° C.): 95%; conversion to 1,5-cz-[Ln(Lig)], Yb^III ([1]; after 1 hour at 80° C.): 2%; conversion to 1,5-cz-[M(Lig)], Sc^III ([2]; 1 week at 80° C.): 4%; conversion to 1,5-cz-[M(Lig)], Sc^III ([2]; 1 hour at 80° C.): 0%
3 | C#Cc1cccc(CN2CCN(CC(=O)O)CCN(Cc3cc(C(=O)OC(C)(C)C)cc(CN=[N+]=[N-])n3)CCN(CC(=O)O)CC2)n1 [TD1160] |  |  |  |  |  |  |  |  |  |  |  |  | 0 | 3 | 0 | 0 | 0 | 0 | 0 | 1 | conversion to 1,5-cz-[Ln(Lig)] with hydrolysed group in the side chain, Lu^III ([1]; after 1 week at 80° C.): 91%; conversion to 1,5-cz-[Ln(Lig)] with hydrolysed group in the side chain, Lu^III ([1]; after 1 hour at 80° C.): 61%; conversion to 1,5-cz-[Ln(Lig)] with hydrolysed group in the side chain, Sm^III ([1]; after 1 week at 80° C.): 85%; conversion to 1,5-cz-[Ln(Lig)] with hydrolysed group in the side chain, Sm^III ([1]; after 1 hour at 80° C.): 3%; conversion to 1,5-cz-[Ln(Lig)] with hydrolysed group in the side chain, Tb^III ([1]; after 1 week at 80° C.): 89%; conversion to 1,5-cz-[Ln(Lig)] with hydrolysed group in the side chain, Tb^III ([1]; after 1 hour at 80° C.): 9%; conversion to 1,5-cz-[Ln(Lig)] with hydrolysed group in the side chain, Y^III ([2]; 1 week at 80° C.): 90%; conversion to 1,5-cz-[Ln(Lig)] with hydrolysed group in the side chain, Y^III ([2]; 1 hour at 80° C.): 17%
